Among the test systems are HCT-116 colon; SK-MEL-2 melanoma; UACC-257 melanoma; NCI-H522 lung; RXF 393 renal; MALME-3M melanoma; LOX IMVI melanoma; HCC-2998 colon; HOP-92 NSCLC; SN12C renal.
Common to all, as to test: growth of human tumour cells (NCI), 48 h

The values below come from PubChem BioAssay (NCI).

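Test compounds were applied to cells in 96-well plates for 48 hours at 5 doses. GI50 is the concentration that inhibits growth by half. At the TGI there is no net growth.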 Where only a bound is given, the exact number is not on record here.

For `COC(=O)[C@]12CC[C@@H](C)[C@H](C)[C@@H]1C1=CC[C@@H]3[C@@]4(C)CC(=O)[C@H](O)[C@@]5(C)COC(=C45)C[C@@]3(C)[C@]1(C)CC2`, the GI50 was 18.7 µM in the experiment with HCT-116 colon; 18.9 µM in the experiment on SK-MEL-2 melanoma; 19.2 µM in the experiment with UACC-257 melanoma; 19.4 µM with NCI-H522 lung; 15.2 µM with RXF 393 renal; 16.2 µM in the experiment with MALME-3M melanoma. The GI50 in the experiment with LOX IMVI melanoma was 17 µM; in the experiment with HCC-2998 colon it was 17.7 µM; in the experiment on HOP-92 NSCLC, 14.3 µM; in the experiment on SN12C renal, 19 µM. Also, the TGI is 34.3 µM in the experiment on HCT-116 colon; 37.2 µM with SK-MEL-2 melanoma; 33.4 µM with UACC-257 melanoma; 35.7 µM in the experiment with NCI-H522 lung; 31.4 µM with RXF 393 renal; 30.7 µM in the experiment on MALME-3M melanoma. For the same compound, the TGI with LOX IMVI melanoma was 31.1 µM; in the experiment on HCC-2998 colon, 33.1 µM; in the experiment on HOP-92 NSCLC it was 29.1 µM; in the experiment on SN12C renal, 39.2 µM.

For the compound `CC1(C)CC(=O)C2=C(C1)NC(SSC1=C(C#N)C(c3ccccc3)C3=C(CC(C)(C)CC3=O)N1)=C(C#N)C2c1ccccc1` (stereo not given), the GI50 with HCT-116 colon is 26.3 µg/mL; in the experiment on SK-MEL-2 melanoma, 26.5 µg/mL; in the experiment on UACC-257 melanoma, 25.4 µg/mL; with NCI-H522 lung, 26.1 µg/mL; in the experiment with RXF 393 renal, 25.7 µg/mL; in the experiment on MALME-3M melanoma it was 27.3 µg/mL. In addition, the GI50 in the experiment with LOX IMVI melanoma was 27.2 µg/mL; in the experiment on HCC-2998 colon, 27.8 µg/mL; with HOP-92 NSCLC, 29 µg/mL; in the experiment on SN12C renal, 23.5 µg/mL. For the same compound, the TGI came out at 47 µg/mL in the experiment with HCT-116 colon; 49.8 µg/mL in the experiment on SK-MEL-2 melanoma; 46 µg/mL in the experiment on UACC-257 melanoma; 47.7 µg/mL in the experiment with NCI-H522 lung; 47 µg/mL in the experiment on RXF 393 renal; 48.6 µg/mL in the experiment on MALME-3M melanoma. For the same compound, the TGI with LOX IMVI melanoma came out at 49.3 µg/mL; in the experiment with HCC-2998 colon it was 52.6 µg/mL; in the experiment with HOP-92 NSCLC it was 51 µg/mL; in the experiment with SN12C renal, 43.7 µg/mL.

Turning to `O=C1C=C[C@]2(C[C@@H](c3cccc(C(F)(F)F)c3)O[C@@H](c3cccc(C(F)(F)F)c3)O2)O1`, the GI50 was 1.08 µM in the experiment on HCT-116 colon; 2.21 µM in the experiment on SK-MEL-2 melanoma; 2.29 µM with UACC-257 melanoma; 1.59 µM with NCI-H522 lung; 1.67 µM with RXF 393 renal; 2.27 µM in the experiment with MALME-3M melanoma. Also, the GI50 in the experiment with LOX IMVI melanoma is 0.433 µM; in the experiment with HCC-2998 colon it was 1.63 µM; with HOP-92 NSCLC, 1.97 µM; in the experiment on SN12C renal it was 2.91 µM. Moreover, the TGI stood at 2.64 µM with HCT-116 colon; 6.54 µM with SK-MEL-2 melanoma; 5.77 µM with UACC-257 melanoma; 3.99 µM in the experiment with NCI-H522 lung; 3.91 µM with RXF 393 renal; 7.06 µM in the experiment with MALME-3M melanoma. Besides, the TGI in the experiment with LOX IMVI melanoma turned out to be 1.71 µM; in the experiment with HCC-2998 colon it was 3.18 µM; with HOP-92 NSCLC, 6.6 µM; in the experiment with SN12C renal, 12.4 µM.

As for `CCCCCCC(=O)C/C(CCC(=O)N(Cc1ccccc1)Cc1ccccc1)=N\Nc1ccc([N+](=O)[O-])cc1[N+](=O)[O-]`, the TGI in the experiment with HCT-116 colon, in the experiment with SK-MEL-2 melanoma, with UACC-257 melanoma, in the experiment on NCI-H522 lung, in the experiment with RXF 393 renal and with MALME-3M melanoma was greater than 100 µM each time. In addition, the TGI in the experiment with LOX IMVI melanoma, in the experiment with HCC-2998 colon, with HOP-92 NSCLC and in the experiment on SN12C renal was greater than 100 µM throughout.

For the compound `C[C@@H](c1ccc2nccn2c1)n1nnc2ncc(-c3cnn(C)c3)nc21`, the GI50 with HCT-116 colon, with SK-MEL-2 melanoma, with UACC-257 melanoma, in the experiment on NCI-H522 lung, in the experiment on RXF 393 renal and in the experiment with MALME-3M melanoma was greater than 100 µM each time. Besides, the GI50 in the experiment on LOX IMVI melanoma was greater than 100 µM; in the experiment with HCC-2998 colon, greater than 100 µM; in the experiment with HOP-92 NSCLC, 58 µM; in the experiment with SN12C renal, greater than 100 µM. In addition, the TGI with HCT-116 colon, in the experiment on SK-MEL-2 melanoma, in the experiment with UACC-257 melanoma, with NCI-H522 lung, in the experiment on RXF 393 renal and in the experiment on MALME-3M melanoma was greater than 100 µM in each case. Besides, the TGI in the experiment with LOX IMVI melanoma, in the experiment on HCC-2998 colon, in the experiment with HOP-92 NSCLC and in the experiment on SN12C renal was greater than 100 µM each time.

Turning to `C1=CN2C[n+]3cccc(OCc4ccccc4)c3N=C2C(OCc2ccccc2)=C1`, the TGI was greater than 100 µM in the experiment on HCT-116 colon; 33.3 µM in the experiment on SK-MEL-2 melanoma; 27.5 µM in the experiment on UACC-257 melanoma; 15.8 µM with NCI-H522 lung; greater than 100 µM in the experiment with RXF 393 renal; 30.6 µM in the experiment with MALME-3M melanoma. For the same compound, the TGI was found to be 86 µM in the experiment with LOX IMVI melanoma, 23.2 µM with HCC-2998 colon, 81.4 µM in the experiment on HOP-92 NSCLC and 25.3 µM with SN12C renal.

In the case of `C=C(c1ccccc1N)[C@@]1(O)C[C@H](/C(=C\C)CO)C[C@@H]1NCc1ccccc1`, the TGI in the experiment on HCT-116 colon came out at 28.7 µM; with SK-MEL-2 melanoma it was 39.2 µM; in the experiment with UACC-257 melanoma it was 32.3 µM; in the experiment on NCI-H522 lung, 33.4 µM; with RXF 393 renal it was 49.3 µM; in the experiment on MALME-3M melanoma, 28.4 µM. The TGI is 31.6 µM in the experiment on LOX IMVI melanoma, 30.9 µM with HCC-2998 colon, 27.5 µM with HOP-92 NSCLC and greater than 100 µM with SN12C renal.

Consider `O=C1C2CC(Cl)C(SSC3CC4C(=O)N(SC(Cl)(Cl)C(Cl)Cl)C(=O)C4CC3Cl)CC2C(=O)N1SC(Cl)(Cl)C(Cl)Cl` (stereo not given), for which the TGI with HCT-116 colon was 7.38 µM; in the experiment with SK-MEL-2 melanoma, 3.65 µM; with UACC-257 melanoma, 5.79 µM; in the experiment on NCI-H522 lung, 1.5 µM; with RXF 393 renal it was 3.17 µM; in the experiment with MALME-3M melanoma it was 2.86 µM. In addition, the TGI with LOX IMVI melanoma worked out at 3.03 µM; in the experiment on HCC-2998 colon it was 16.4 µM; with HOP-92 NSCLC it was 3 µM; in the experiment with SN12C renal, 5.24 µM.

Regarding `OB([O][Hg][c]1ccccc1)[O][Hg][c]1ccccc1`, the GI50 in the experiment with HCT-116 colon is 0.161 µM; in the experiment on SK-MEL-2 melanoma, 0.168 µM; in the experiment on UACC-257 melanoma, 0.317 µM; in the experiment on NCI-H522 lung, 0.0279 µM; with RXF 393 renal it was 0.229 µM; with MALME-3M melanoma it was 0.244 µM. In addition, the GI50 in the experiment on LOX IMVI melanoma was 0.173 µM; in the experiment on HCC-2998 colon, 1.86 µM; with HOP-92 NSCLC it was 0.185 µM; in the experiment with SN12C renal it was 0.266 µM. Further, the TGI with HCT-116 colon worked out at 0.307 µM; with SK-MEL-2 melanoma, 0.509 µM; in the experiment with UACC-257 melanoma, 1.14 µM; in the experiment on NCI-H522 lung, 0.0752 µM; in the experiment on RXF 393 renal, 0.829 µM; in the experiment on MALME-3M melanoma it was 0.788 µM. The TGI was 0.366 µM in the experiment with LOX IMVI melanoma, 3.36 µM in the experiment on HCC-2998 colon, 0.528 µM in the experiment with HOP-92 NSCLC and 0.799 µM with SN12C renal.
